Type in all cases: in vivo, human
For assay [1], the system named is Patient with Spondyloarthritis. As to the kind of experiment: Spondyloarthritis patient treated with oral relugolix. Particulars: 400 mg daily; at 12 weeks, remission; baseline 5. On the procedure: • person with spondyloarthritis with disease duration of 5 years.
• Is offered experimental GnRH antagonist therapy, relugolix 400 mg daily for 12 weeks.
• Disease activity in ankylosing spondylitis/spondyloarthritis is measured by the BASDAI score. His BASDAI is 5 at baseline.

For assay [2], the system named is post-menopausal female with rheumatoid arthritis. As to the kind of experiment: Post-menopausal RA patients on methotrexate, oral ASP1707 30 mg twice daily for 12 weeks. Particulars: ASP1707+MTX; Week 12; assuming placebo+MTX 30%.
Description: • Patient is offered experimental GnRH antagonist therapy, ASP1707 30 mg twice daily for 12 weeks orally. Primary Assessment is ACR20 response rate at 12 weeks.
For assay [3], the system named is patient with cancer-related inflammation. As to the kind of experiment: Cancer-related inflammation, colon cancer patient treated with oral ASP1707. As to conditions: 8 mg daily, at 3 months. The source says: • person with colon cancer with disease duration of 1 year. Suffers from signs and symptoms of cancer-related inflammation, such as pain, anorexia, and fatigue.

For assay [4], the system named is Patient with Psoriatic Arthritis. The experiment in a line: Psoriatic arthritis patient treated with oral ASP1707. Particulars: 3 mg daily for 12 weeks; response at 4 months. On the procedure:
• person with psoriatic arthritis • Fulfills CASPAR 2006 classification criteria for psoriatic arthritis.
• Is offered experimental GnRH antagonist therapy, ASP1707 3 mg daily for 12 weeks.

Turning to `CONC(=O)Nc1ccc(-c2sc3c(c2CN(C)C)c(=O)n(-c2ccc(OC)nn2)c(=O)n3Cc2c(F)cccc2F)cc1` [relugolix], the BASDAI in assay [1] amounted to 1.2.
The compound `C[C@@H](O)C(=N)NS(=O)(=O)c1cc(C(=O)C(C(=O)c2cc(F)ccc2F)=C2Nc3ccccc3N2)ccc1F` [ASP1707, (2R)—N-({5-[3-(2,5-difluorophenyl)-2-(1,3-dihydro-2H-benzoimidazol-2-ylidene)-3-oxopropanoyl]-2-fluorophenyl}sulfonyl)-2-hydroxypropanimidamide] registered an ACR20 response rate in assay [2] of 60%. In addition, in assay [3], the “Signs and symptoms of cancer related inflammation (pain, anorexia, fatigue)” value is given as “reduced”. In assay [3] (baseline 40 mg/L), the CRP is reported as 12 mg/L. In assay [4], the DAS reduction result was “over 0.6 units”.

The record behind these values is patent US20160346255A1, “METHODS, AGENTS AND COMPOSITIONS FOR TREATMENT OF INFLAMMATORY CONDITIONS” (Betanien Hospital, priority 2014, published 2016).
